Data on five compounds can be found in patent publication US8962623B2, “Aminopyrazine compounds” (Locus Pharmaceuticals, Inc., priority 2011, dated 2015).

The target in one experiment is Lck (Homo sapiens, UniProt P06239). The experiment can be described thus: Inhibitory activity to Lck (similar procedure). Type of experiment: biochemical. The conditions noted are these: selectivity ratio. The method, then: Study of inhibitory activity to Lck was performed in similar procedure above described.
(§1) Study of inhibitory activity to other various kinases (e.g. Lck, InsR, Btk) was performed in similar procedure above described.

In another experiment the target is Btk (Homo sapiens, UniProt Q06187). The experiment can be described thus: Inhibitory activity to Btk (similar procedure). Type of experiment: biochemical. The conditions noted are these: selectivity ratio. The method, then: as §1
A further experiment addresses T1, Itk (Homo sapiens, UniProt Q08881).
T1 construct: purchased Invitrogen
T1 sequence (Q08881 1-620): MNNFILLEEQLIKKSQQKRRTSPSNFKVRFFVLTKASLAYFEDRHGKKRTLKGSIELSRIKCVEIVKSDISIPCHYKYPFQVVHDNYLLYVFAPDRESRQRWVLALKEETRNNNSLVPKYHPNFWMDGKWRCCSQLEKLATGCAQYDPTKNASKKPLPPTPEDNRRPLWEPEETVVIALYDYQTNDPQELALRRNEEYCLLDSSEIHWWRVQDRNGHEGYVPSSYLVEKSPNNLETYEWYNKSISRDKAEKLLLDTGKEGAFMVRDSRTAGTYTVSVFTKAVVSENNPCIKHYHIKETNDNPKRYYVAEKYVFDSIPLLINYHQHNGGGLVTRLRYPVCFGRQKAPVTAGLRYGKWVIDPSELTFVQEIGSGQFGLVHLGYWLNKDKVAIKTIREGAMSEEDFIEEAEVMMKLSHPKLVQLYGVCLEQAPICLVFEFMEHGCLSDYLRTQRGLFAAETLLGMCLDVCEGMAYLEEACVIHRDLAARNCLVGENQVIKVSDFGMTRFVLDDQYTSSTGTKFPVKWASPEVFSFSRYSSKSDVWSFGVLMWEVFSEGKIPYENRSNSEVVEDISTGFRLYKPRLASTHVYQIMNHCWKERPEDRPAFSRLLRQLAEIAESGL
The experiment can be described thus: Itk in vitro inhibitory activity in radioassay (33P incorporation into Phospholipase C-γ-1). In kind it is biochemical. The conditions noted are these: 20 μM ATP solution, read-out: IC50 over Itk. The method, then:
The Itk protein kinase activity (Invitrogen) was determined by measuring the incorporation of ^33P from γ-[^33P] ATP into the Phospholipase C-γ-1 substrate (Calbiochem). The dilution series of the compound of the present invention were dissolved in DMSO. The diluted solution (1 μl) of the compounds of the present invention in DMSO was added to a 96-well assay plate. Additionally, Itk kinase solution (39 μL) composed of 3.2 nM Itk (Invitrogen) in reaction buffer (12.5 mM Tris (pH 7.5), 0.01% Triton X-100, 5% glycerol, 10 mM MgCl2, 1 mM EGTA, 5 mM glycerol 2-phosphate, 2 mM DTT and 0.5 mM sodium orthovanadate) was added to the assay plates. The solution was pre-incubated for 20 minutes at 30° C. with shaking. Then ATP/substrate solution (10 μl) composed of […] Phospholipase C-γ-1 (Calbiochem), 1.5% v/v γ-^33P-ATP (PerkinElmer), 20 μM ATP and reaction buffer was added. After incubating at 30° C. with shaking for 70 minutes, the reaction was stopped by adding 10 μl of 0.6 M phosphoric acid to each well. The each reaction from the assay plate was transferred and captured on a phosphocellulose 96-well plate (Millipore MAPHNOB). The reaction mixture was analyzed on the PerkinElmer TopCount NXT HTS 96-well Liquid Scintillation counter.
Inhibition rate (%) of the compound was calculated with the following formula: Inhibition rate(%)={1−(Bx−B100)/(B0−B100)}×100
BX: average counts for the compound
B100: average counts for 100% inhibition control (i.e., no enzyme, no compound)
B0: average counts for 0% inhibition control (i.e., no compound)
The value of 50% inhibition rate (IC50) for the compound was defined as the concentration of the test compound that caused a 50% decrease in the maximum inhibition. IC50 values were calculated from replicate curves by non-linear regression using the sigmoidal dose-response equation in GraphPad Prism software.

The target of the next experiment is InsR (Homo sapiens, UniProt P06213). Description: Inhibitory activity to InsR (similar procedure). In kind it is biochemical. The conditions noted are these: selectivity ratio. The method, then: as §1
For experiment [1], the system named is IL-2 production in mouse whole blood. The experiment can be described thus: Mouse whole blood IL-2 assay. The conditions noted are these: anti-CD3/anti-CD28 stimulation, 18 hours, IL-2 by ELISA. Type of experiment: cell-based, BALB/c mouse. The method, then:
The dilution series of the compound of the present invention in DMSO were further diluted by addition of RPMI1640 medium (Invitrogen). The diluted compound solution (6.5 μl) was added to a 96-well plate. BALB/c mouse heparinized peripheral blood was diluted 1:2 in RPMI1640, and added 123.5 μl of the diluted blood to the compound plate. The blood samples were pre-incubated at 37° C. for 30 minutes. Anti-CD3 and anti-CD28 antibody mixture (6 μl; 20 μg/mL each) was spotted into a 96 well assay plates. Pre-treated blood samples (114 μl) were added to each well and the plate was incubated for 18 hours at 37° C. in 5% CO2. After the incubation, supernatants were collected by centrifugation at 300×g for 10 min. IL-2 concentration was determined by ELISA method. The inhibition rate (%) of the compound was calculated with the following formula: Inhibition rate(%)={1−(Cx−C100)/(C0−C100)}×100
CX: IL-2 concentration for the compound
C100: IL-2 concentration for 100% inhibition control (i.e., no stimulation, no compound)
C0: IL-2 concentration for 0% inhibition control (i.e., no compound)
The value of 50% inhibition rate (IC50) for the compound was determined from inhibition curve based on inhibition rate at each concentration of the compound of the present invention.

Sequence of InsR (P06213 28-1382, species assumed): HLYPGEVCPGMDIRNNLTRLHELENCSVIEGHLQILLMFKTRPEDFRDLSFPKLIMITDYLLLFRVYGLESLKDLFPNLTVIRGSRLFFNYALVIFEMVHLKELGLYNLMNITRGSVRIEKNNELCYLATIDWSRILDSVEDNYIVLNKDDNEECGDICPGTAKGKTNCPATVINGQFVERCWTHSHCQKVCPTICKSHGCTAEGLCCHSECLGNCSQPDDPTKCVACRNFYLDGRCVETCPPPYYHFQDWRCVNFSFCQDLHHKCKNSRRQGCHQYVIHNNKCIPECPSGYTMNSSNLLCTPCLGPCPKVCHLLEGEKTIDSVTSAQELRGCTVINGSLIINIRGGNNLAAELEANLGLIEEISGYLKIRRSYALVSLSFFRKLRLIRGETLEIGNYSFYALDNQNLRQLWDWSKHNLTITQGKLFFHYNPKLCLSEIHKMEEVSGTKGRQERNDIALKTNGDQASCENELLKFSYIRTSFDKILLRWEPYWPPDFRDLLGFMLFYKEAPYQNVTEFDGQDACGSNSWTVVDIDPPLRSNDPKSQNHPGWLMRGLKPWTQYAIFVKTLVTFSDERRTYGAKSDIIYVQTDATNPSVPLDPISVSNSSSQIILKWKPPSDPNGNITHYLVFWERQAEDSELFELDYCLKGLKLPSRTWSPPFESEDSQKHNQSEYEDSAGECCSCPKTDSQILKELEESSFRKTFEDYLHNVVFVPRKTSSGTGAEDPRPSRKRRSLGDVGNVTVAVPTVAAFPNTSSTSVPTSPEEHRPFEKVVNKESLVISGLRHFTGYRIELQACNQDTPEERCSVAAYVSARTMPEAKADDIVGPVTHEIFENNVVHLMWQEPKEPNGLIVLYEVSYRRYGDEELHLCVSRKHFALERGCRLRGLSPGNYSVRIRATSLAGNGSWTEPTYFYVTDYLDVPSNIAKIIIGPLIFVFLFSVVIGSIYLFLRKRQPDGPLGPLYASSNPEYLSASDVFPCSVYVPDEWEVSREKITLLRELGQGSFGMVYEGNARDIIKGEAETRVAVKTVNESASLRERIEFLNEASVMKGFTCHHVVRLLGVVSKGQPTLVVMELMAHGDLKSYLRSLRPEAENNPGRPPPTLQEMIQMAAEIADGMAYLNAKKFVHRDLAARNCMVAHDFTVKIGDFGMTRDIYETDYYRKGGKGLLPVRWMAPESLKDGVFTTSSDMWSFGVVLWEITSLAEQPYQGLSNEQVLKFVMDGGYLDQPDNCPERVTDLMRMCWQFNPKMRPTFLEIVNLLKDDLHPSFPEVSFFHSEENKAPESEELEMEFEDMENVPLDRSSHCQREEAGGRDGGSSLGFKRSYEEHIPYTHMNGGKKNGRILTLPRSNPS
Sequence of Btk (Q06187 whole entry, species assumed): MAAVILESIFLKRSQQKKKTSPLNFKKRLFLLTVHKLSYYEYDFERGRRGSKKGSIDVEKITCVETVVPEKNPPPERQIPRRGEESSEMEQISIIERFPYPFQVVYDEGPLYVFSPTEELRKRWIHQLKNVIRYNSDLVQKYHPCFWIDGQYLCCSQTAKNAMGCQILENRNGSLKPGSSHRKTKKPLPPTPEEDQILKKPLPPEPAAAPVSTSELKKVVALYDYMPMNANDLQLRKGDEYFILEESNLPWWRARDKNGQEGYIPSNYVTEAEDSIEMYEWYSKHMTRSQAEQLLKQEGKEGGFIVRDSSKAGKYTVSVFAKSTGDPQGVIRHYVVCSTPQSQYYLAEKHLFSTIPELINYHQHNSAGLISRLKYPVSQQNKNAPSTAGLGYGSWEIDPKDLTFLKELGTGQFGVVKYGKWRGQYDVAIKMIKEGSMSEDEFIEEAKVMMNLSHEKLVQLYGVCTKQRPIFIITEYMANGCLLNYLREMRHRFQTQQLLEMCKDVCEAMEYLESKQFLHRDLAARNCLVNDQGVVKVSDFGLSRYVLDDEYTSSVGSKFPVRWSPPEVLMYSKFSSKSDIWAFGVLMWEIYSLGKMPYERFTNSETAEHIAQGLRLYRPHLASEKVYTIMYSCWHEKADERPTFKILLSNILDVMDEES
Sequence of Lck (P06239 whole entry, species assumed): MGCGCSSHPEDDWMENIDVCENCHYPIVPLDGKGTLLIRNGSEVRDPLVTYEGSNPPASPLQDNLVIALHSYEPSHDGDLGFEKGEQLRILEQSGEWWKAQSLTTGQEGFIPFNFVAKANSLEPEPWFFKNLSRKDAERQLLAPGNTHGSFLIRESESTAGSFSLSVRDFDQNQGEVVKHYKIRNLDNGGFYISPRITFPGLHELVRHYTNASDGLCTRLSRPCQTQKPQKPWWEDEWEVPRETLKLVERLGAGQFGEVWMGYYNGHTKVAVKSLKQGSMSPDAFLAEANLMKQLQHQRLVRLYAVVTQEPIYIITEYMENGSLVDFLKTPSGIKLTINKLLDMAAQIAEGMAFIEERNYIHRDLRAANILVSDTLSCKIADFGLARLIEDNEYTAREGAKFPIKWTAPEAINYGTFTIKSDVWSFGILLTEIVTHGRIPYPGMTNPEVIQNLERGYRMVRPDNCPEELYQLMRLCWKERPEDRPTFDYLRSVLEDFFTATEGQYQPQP

For `COC1CCN(c2cccc(-c3cnc(N)c(-c4ccc(NC(=O)c5c(C)n(C)n(-c6cccc(C)c6)c5=O)cc4)n3)n2)CC1` [Example 17(11), N-(4-{3-amino-6-[6-(4-methoxy-1-piperidinyl)-2-pyridinyl]-2-pyrazinyl}phenyl)-1,5-dimethyl-2-(3-methylphenyl)-3-oxo-2,3-dihydro-1H-pyrazole-4-carboxamide], on Lck, the “Lck[IC50]/Itk[IC50]” value is over 300. Moreover, at Btk, the “Btk[IC50]/Itk[IC50]” value is over 1000. In addition, the IC50 on Itk is 1 nM. The “InsR[IC50]/Itk[IC50]” value on InsR is recorded as over 300.

Consider `Cc1c(C(=O)Nc2ccc(-c3nc(-c4ccnc(N5CCOCC5)c4)cnc3N)nc2)c(=O)n(-c2cccc(Cl)c2)n1C` [Example 29(2), N-(6-{3-amino-6-[2-(4-morpholinyl)-4-pyridinyl]-2-pyrazinyl}-3-pyridinyl)-2-(3-chlorophenyl)-1,5-dimethyl-3-oxo-2,3-dihydro-1H-pyrazole-4-carboxamide], for which the “Lck[IC50]/Itk[IC50]” value on Lck is given as over 360. For the same compound, the “Btk[IC50]/Itk[IC50]” value at Btk is listed as over 1000. Further, the half-inhibitory concentration (IC50) amounted to 350 nM in experiment [1] and 1 nM on Itk. Further, the “InsR[IC50]/Itk[IC50]” value on InsR is over 1000.

Regarding `COc1cccc(-n2c(=O)c(C(=O)Nc3ccc(-c4nc(-c5ccnc(N6CC(OC)C6)c5)cnc4N)nc3)c(C)n2C)c1` [Example 29(33), N-(6-{3-amino-6-[2-(3-methoxy-1-azetidinyl)-4-pyridinyl]-2-pyrazinyl}-3-pyridinyl)-2-(3-methoxyphenyl)-1,5-dimethyl-3-oxo-2,3-dihydro-1H-pyrazole-4-carboxamide], the IC50 at Itk came out at 4 nM.

As for `COC1CN(c2cccc(-c3cnc(N)c(-c4ccc(NC(=O)c5c(C)n(C)n(-c6cccc(Cl)c6)c5=O)cc4)n3)n2)C1` [Example 14(12), N-(4-{3-amino-6-[6-(3-methoxy-1-azetidinyl)-2-pyridinyl]-2-pyrazinyl}phenyl)-2-(3-chlorophenyl)-1,5-dimethyl-3-oxo-2,3-dihydro-1H-pyrazole-4-carboxamide], the “Lck[IC50]/Itk[IC50]” value at Lck came to 185. Besides, on Btk, the “Btk[IC50]/Itk[IC50]” value was over 500. Besides, the half-inhibitory concentration (IC50) at Itk worked out at 2 nM. Besides, the “InsR[IC50]/Itk[IC50]” value at InsR is reported as 1400.

For `Cc1c(C(=O)Nc2ccc(-c3nc(-c4cccc(N5CCOCC5)n4)cnc3N)cc2)c(=O)n(-c2ccccc2)n1C` [Example 7(6), N-(4-{3-amino-6-[6-(4-morpholinyl)-2-pyridinyl]-2-pyrazinyl}phenyl)-1,5-dimethyl-3-oxo-2-phenyl-2,3-dihydro-1H-pyrazole-4-carboxamide], at Lck, the “Lck[IC50]/Itk[IC50]” value was 85. Besides, the “Btk[IC50]/Itk[IC50]” value on Btk was over 200. The IC50 at Itk turned out to be 2 nM. For the same compound, the “InsR[IC50]/Itk[IC50]” value at InsR was determined as 100.

A word on the IC50: it is the point on the concentration scale where inhibition reaches its midpoint.
